Patent publication US10258642B2, “Dextran sulfate for use in mobilization of cells” (TX MEDIC AB, priority 2013, dated 2019)
Where “and” joins values, the source holds several entries; their conditions need not be identical. Identical values can stand only once. Like-named read-outs stand apart in the source and are kept apart here. Marks after values point to notes of the source that are not given here.

Experiments:
stem cells = details: mice (Broxmeyer 2005); cited from earlier work
HGF [1] = test: s.c. dose finding study, HGF-ELISA
peripheral blood cells [2] = test: s.c. dose finding study, hematological analysis of peripheral blood
[3] = clinical trials (CHMP Assessment Report); cited from earlier work
lymphocytes = test: cell (lymphocyte) mobilization in humans after 10 min i.v. infusion; type: in vivo
Method: FIG. 13 illustrates mobilization of lymphocytes in peripheral blood in humans receiving a 10 min i.v. infusion of 15 mg/kg LMW-DS (top panel), 18 mg/kg LMW-DS (middle panel) or 24 mg/kg LMW-DS (lower panel) at time 0. The black line represents average lymphocyte levels and gray lines represent lymphocyte levels in individual humans.
Thus, the peak in cell mobilization starts about 1 hour after dextran sulfate administration, which is shown in […] exemplified by mobilization of lymphocytes following administration of different doses of dextran sulfate to human subjects at time 0 hours. Thus, the peak effect in cell mobilization in humans typically occurs within the first three hours following dextran sulfate administration.

peripheral blood cells [4] = test: combination with G-CSF, hematological analysis; type: in vivo, mice; details: single administration, mice
Method: G-CSF (NEUPOGEN®, Amgen, Holland) was supplied as sterile isotonic aqueous solution at 0.3 mg/mL and was diluted in normal saline to a concentration of 50 μg/mL. G-CSF was administered at a dose of 2.5 μg as a single subcutaneous injection, morning and evening Day -2 and Day -1. Dextran sulfate of different average molecular weights were used:
Standard treatment of patients prior to apheresis is based on daily injections of G-CSF for up to one week. Clinically dextran sulfate could be used in combination with G-CSF. In a study in mice 2.5 μg/animal of G-CSF was administered twice daily (8 hrs apart) for 2 days (Broxmeyer 1999).

peripheral blood cells [5] = details: single dose; AMD3100 s.c., dextran sulfate i.v.
HGF [6] = test: time-effect relationship, HGF-ELISA; type: in vivo, mice; details: for HGF highest level: 15 minutes after administration, mice; for HGF: i.v., plasma, HGF measured in another experiment
Method: Plasma was prepared by centrifuging EDTA blood for 5 minutes at 3000 g, and frozen at […] until analysis.

SDF-1 = details: single injection, monkeys (Sweeney 2002); cited from earlier work
peripheral blood cells [7] = test: time-effect relationship, hematological analysis; details: 100 mg/kg i.v.; for Lymph / PLT / WBC: mean±SEM
Method: (§1) Peripheral blood was sampled by terminal heart puncture under isoflurane-anesthesia using EDTA-flushed syringes and transferred to polypropylene tubes containing 1.6 mg EDTA (Sarstedt, Landskrona, Sweden).

peripheral blood cells [8] = test: effect of administration route, hematological analysis; type: in vivo, mice; details: 30 minutes after administration
Method: as §1
Mobilization was performed on DBA/2N mice (9-10 months, Charles River) using 100 mg/kg dextran sulfate (Meito, i.v. and s.c.).
The effect on peripheral blood cells after administration of 100 mg/kg dextran sulfate i.v. and s.c. was compared (n=5). Cells were harvested 30 minutes after administration for both administration routes.

[9] = system: hematopoietic colony-forming cells (CFC); test: i.v. dose finding study, colony-forming cell assay; type: in vivo, mice
Method: Blood (100-200 μL) was transferred to polypropylene tubes containing heparin (final concentration 17.5 IE/mL). Erythrocytes were depleted using ammonium chloride solution (StemCell Technologies, Vancouver, BC, Canada). Remaining cells were resuspended in Iscove's modified Dulbecco's Medium with 2% fetal bovine serum (StemCell Technologies) and mixed with 2 mL of methylcellulose media supplemented with a cocktail of recombinant cytokines (MethoCult 3434; StemCell Technologies) and penicillin-streptomycin according to manufacturer's instructions. Cultures of 1.1 mL containing HPCs were plated onto 35 mm dishes (Sarstedt, Landskrona, Sweden) and placed in a humidified chamber with 5% CO2 at 37° C. Total number of colonies was counted on day 12 of culture.

[10] = system: hematopoietic colony-forming cells (CFC); test: time-effect relationship, colony-forming cell assay; type: in vivo; details: mice
From the text: Peripheral blood was sampled by terminal heart puncture under isoflurane-anesthesia using EDTA-flushed (0.2 M EDTA prepared from a stock solution of 0.5 M EDTA (prepared by Rudbeck laboratory) diluted 1:2.5 in 0.9% NaCl) syringes.

[11] = system: colony forming cells (CFCs); details: monkeys (Sweeney 2000, 2002); cited from earlier work
[12] = system: colony forming cells (CFCs); details: mice (Sweeney 2000, 2002); cited from earlier work
CFU-GM = details: cited from earlier work
[13] = AMD3100 5 mg/kg s.c., 1 hour, mean ± SEM
[14] = LMW-DS (pKC) 10 mg/kg s.c., 3 hours, mean ± SEM
[15] = LMW-DS (pKC) 50 mg/kg s.c., 3 hours, mean ± SEM
[16] = LMW-DS (pKC) 150 mg/kg s.c., 3 hours, mean ± SEM
[17] = LMW-DS (pKC) 500 mg/kg s.c., 3 hours, mean ± SEM

## c1cc(CN2CCCNCCNCCCNCC2)ccc1CN1CCCNCCNCCCNCC1 [AMD3100, 1,1′-[1,4-phenylenebis (methylene)]-bis-1,4,8,11-tetraazacyclotetradecane, reference compound]
Stem cells
  time of peak in mobilized stem cells after plerixafor administration: 1 h
HGF [1]; one hour after administration of AMD3100
  HGF levels: 650 ± 230 pg/mL
Peripheral blood cells [2]; [13]
  Basophils: 0.03 ± 0.0 10^9 cells/L
  Eosinophils: 0.3 ± 0.0* 10^9 cells/L
  LUC: 0.05 ± 0.0* 10^9 cells/L
  Leukocytes (WBC): 7.8 ± 0.6* 10^9 cells/L
  Lymphocytes: 5.3 ± 0.4 10^9 cells/L
  MPV: 8.0 ± 0.1
  Monocytes: 0.3 ± 0.0 10^9 cells/L
  Neutrophils: 1.8 ± 0.2* 10^9 cells/L
Peripheral blood cells [2]; mouse, in vivo, sc, 5 mg/kg
  Erythrocytes: 8.0 ± 0.0*** 10^12 cells/L
  Hemoglobin: 112.5 ± 0.9
  MCHC: 332.0 ± 2.0 g/L
  MCV: 42.7 ± 0.6 fL
  Platelets: 706.8 ± 30.7** 10^9 cells/L
  Reticulocytes: 186.3 ± 23.7 10^9 cells/L
[3]
  HSCT patients who experienced infections after transplantation: 20-25%

## dextran sulfate [LMW-DS]
lymphocytes; humans
  time of peak in mobilized cells after dextran sulfate administration: 30 to 120 min
lymphocytes; preliminary human data
  time at which cell mobilization is back to normal levels: about 24 hours
  time at which cell mobilization starts to decline: about 6 hours
lymphocytes; preliminary human data, lymphocytes
  time of peak of cell mobilization after administration: about 1 hour
Peripheral blood cells [4]
  release of lymphocytes in single therapy compared to single administration of G-CSF or plerixafor: increased lymphocytes
Peripheral blood cells [4]; listed as dextran sulfate
  release of lymphocytes in single therapy compared to single administration of G-CSF or plerixafor: at least doubles
Peripheral blood cells [5]
  general increase of WBC over control: 4-5 times
HGF [1]; 50, 150 and 500 mg/kg s.c.
  levels of circulating HGF: significantly (p<0.001) increased levels
HGF [6]; listed as Dextran sulfate
  HGF highest level: 16000 pg/mL
HGF [6]; listed as dextran sulfate
  HGF highest level: 15960 pg/mL and 16000 pg/mL
HGF [6]; after 15 minutes
  increase of HGF compared to baseline levels: > 100 fold
HGF [6]; dextran sulfate 15 minutes versus AMD3100 after 1 hour
  HGF increase relative to plerixafor (AMD3100): 25 fold
HGF [6]; 15 min
  HGF: 15,960 ± 1,450 pg/mL
HGF [6]; 30 min
  HGF: 13,800 ± 1,100 pg/mL
HGF [6]; 1 hr
  HGF: 7,740 ± 510 pg/mL
HGF [6]; 3 hr
  HGF: 710 ± 230 pg/mL
Peripheral blood cells [2]; 10-500 mg/kg s.c., 3 hours after administration
  circulating white blood cells (WBC), mainly lymphocytes, and HGF: dose-dependent increase
Peripheral blood cells [2]; [14]
  Basophils: 0.02 ± 0.0 10^9 cells/L
  Eosinophils: 0.2 ± 0.0† 10^9 cells/L
  Erythrocytes: 9.0 ± 0.0††† 10^12 cells/L
  Hematocrit: 0.4 ± 0.0
  Hemoglobin: 122.0 ± 1.7
  LUC: 0.1 ± 0.0* 10^9 cells/L
  Leukocytes (WBC): 9.0 ± 1.2* 10^9 cells/L
  Lymphocytes: 6.1 ± 0.5** 10^9 cells/L
  MCHC: 323.7 ± 3.8 g/L
  MCV: 41.9 ± 0.1 fL
  MPV: 7.7 ± 0.2
  Monocytes: 0.6 ± 0.011 10^9 cells/L
  Neutrophils: 1.9 ± 0.4 10^9 cells/L
  Platelets: 1083.3 ± 116.3† 10^9 cells/L
  Reticulocytes: 222.7 ± 6.3 10^9 cells/L
Peripheral blood cells [2]; [15]
  Basophils: 0.03 ± 0.0 10^9 cells/L
  Eosinophils: 0.2 ± 0.0 10^9 cells/L
  Erythrocytes: 9.2 ± 0.4† 10^12 cells/L
  Hematocrit: 0.4 ± 0.0
  Hemoglobin: 127.8 ± 5.0
  LUC: 0.1 ± 0.0* 10^9 cells/L
  Leukocytes (WBC): 9.4 ± 0.7 10^9 cells/L
  Lymphocytes: 7.3 ± 0.6**/f 10^9 cells/L
  MCHC: 324.3 ± 1.41 g/L
  MCV: 42.6 ± 0.3 fL
  MPV: 7.9 ± 0.1
  Monocytes: 0.3 ± 0.1 10^9 cells/L
  Neutrophils: 1.5 ± 0.2 10^9 cells/L
  Platelets: 902.0 ± 96.4 10^9 cells/L
  Reticulocytes: 230.1 ± 64.6 10^9 cells/L
Peripheral blood cells [2]; [16]
  Basophils: 0.1 ± 0.0** 10^9 cells/L
  Eosinophils: 0.3 ± 0.1* 10^9 cells/L
  Erythrocytes: 8.3 ± 0.6 10^12 cells/L
  Hematocrit: 0.3 ± 0.0
  Hemoglobin: 113.3 ± 8.2
  LUC: 0.1 ± 0.0***/†† 10^9 cells/L
  Leukocytes (WBC): 15.7 ± 0.4***/††† 10^9 cells/L
  MCHC: 329.3 ± 4.9 g/L
  MCV: 41.7 ± 0.4 fL
  MPV: 7.2 ± 0.5
  Monocytes: 0.4 ± 0.0*/†† 10^9 cells/L
  Neutrophils: 2.4 ± 0.3** 10^9 cells/L
  Platelets: 893.5 ± 60.8† 10^9 cells/L
  Reticulocytes: 243.7 ± 23.7 10^9 cells/L
Peripheral blood cells [2]; [17]
  Basophils: 0.1 ± 0.0* 10^9 cells/L
  Eosinophils: 0.4 ± 0.1* 10^9 cells/L
  Erythrocytes: 9.4 ± 0.2††† 10^12 cells/L
  Hematocrit: 0.4 ± 0.0
  Hemoglobin: 130.3 ± 3.1
  LUC: 0.3 ± 0.2 10^9 cells/L
  Leukocytes (WBC): 21.8 ± 2.5***/†† 10^9 cells/L
  MCHC: 327.3 ± 2.5 g/L
  MCV: 42.4 ± 0.3 fL
  MPV: 7.9 ± 0.1
  Monocytes: 0.5 ± 0.1*/† 10^9 cells/L
  Neutrophils: 2.7 ± 0.3**/† 10^9 cells/L
  Platelets: 893.5 ± 61.0†† 10^9 cells/L
  Reticulocytes: 224.5 ± 35.2 10^9 cells/L
SDF-1
  time of maximum levels of peripheral SDF-1: 6 h
  time of return of peripheral SDF-1 to baseline: 24 h
Peripheral blood cells [7]
  number of platelets (PLT): did not affect
Peripheral blood cells [7]; 7.5 min
  Lymph: 4.6 ± 0.5*** *10^9/L
  PLT: 1,034 ± 31 *10^9/L
  WBC: 5.6 ± 0.5* *10^9/L
Peripheral blood cells [7]; 15 min
  Lymph: 8.9 ± 0.7*** *10^9/L
  PLT: 1,122 ± 58 *10^9/L
  WBC: 10.2 ± 0.7*** *10^9/L
Peripheral blood cells [7]; 30 min
  Lymph: 12.3 ± 1.1*** *10^9/L
  PLT: 978 ± 64 *10^9/L
  WBC: 14.6 ± 1.3*** *10^9/L
Peripheral blood cells [7]; 1 hr
  Lymph: 8.8 ± 0.5*** *10^9/L
  PLT: 965 ± 23 *10^9/L
  WBC: 11.2 ± 0.6*** *10^9/L
Peripheral blood cells [7]; 3 hr
  Lymph: 5.2 ± 0.8** *10^9/L
  PLT: 936 ± 26 *10^9/L
  WBC: 6.8 ± 1.0* *10^9/L
Peripheral blood cells [7]; mice
  time of highest numbers of WBC and lymphocytes: around 30 minutes
Peripheral blood cells [8]; 100 mg/kg (Meito) i.v.
  Lymphocytes: 12.6 ± 1.7 *10^9/L
  WBC: 16.2 ± 1.8 *10^9/L
Peripheral blood cells [8]; 100 mg/kg (Meito) s.c.
  Lymphocytes: 9.9 ± 1.2 *10^9/L
Peripheral blood cells [8]; 100 mg/kg
  circulating WBC, lymphocytes, CFC or CFC subtypes, i.v. versus s.c.: no significant differences
[9]; lowest dose given, 25 mg/kg i.v., p<0.001
  mobilization effect on CFC: significant evident already at the lowest dose given
[9]; single dose, AMD3100 s.c., dextran sulfate i.v.
  increase of CFC over control: 6-12 times
[9]; single i.v. injection
  BFU-E compared with AMD3100: seemed to increase BFU-E to a greater extent than AMD3100
[10]; 100 mg/kg i.v.
  time at which the number of CFCs peaks (peak starts): 7.5 min
  time of BFU-E peak: 7.5 min
  time of CFU-GM/CFU-GEMM peak: 15 to 30 min
[10]
  persistence of the CFC peak: at least 1 hour
  time of peak in mobilized cells (CFCs) after dextran sulfate administration: 7.5 to 30 min

## dextran sulfate [dextran sulfate 10 kDa]
[11]
  time of CFC mobilization after dextran sulfate administration: 6 h
[12]
  time of CFC mobilization after dextran sulfate administration: 3 h
CFU-GM; colonies with >50 cells, G-CSF 10 μg/kg daily for five days and/or dextran sulfate 15 mg/kg once on day 5 (Han 1998)
  CFU-GM level: 12.9±1.6 colonies
CFU-GM; i.v. injection of 15-30 mg, mice (Han 1998)
  time of peaks in peripheral WBC, MNC and CFU-GM: 2 to 5 h
